According to PubChem BioAssay (NCI):
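Values below derive from 48-hour exposures of cells grown in 96-well plates, with endpoints linearly interpolated between the two concentrations bracketing the appropriate inhibition level. At the GI50, growth is halved. TGI is the concentration that stops growth completely.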

Tests used:
Assay in all cases: NCI anticancer screen, dose series, 48 h
EKVX NSCLC = system: EKVX NSCLC
HCT-15 colon = system: HCT-15 colon
CCRF-CEM leukemia = system: CCRF-CEM leukemia
UACC-257 melanoma = system: UACC-257 melanoma
SK-MEL-2 melanoma = system: SK-MEL-2 melanoma
COLO 205 colon = system: COLO 205 colon
RPMI-8226 leukemia = system: RPMI-8226 leukemia
MOLT-4 leukemia = system: MOLT-4 leukemia
PC-3 prostate = system: PC-3 prostate
UO-31 renal = system: UO-31 renal
HCT-116 colon = system: HCT-116 colon
NCI-H522 lung = system: NCI-H522 lung
CAKI-1 renal = system: CAKI-1 renal
IGROV1 ovarian = system: IGROV1 ovarian
SNB-19 CNS = system: SNB-19 CNS
MALME-3M melanoma = system: MALME-3M melanoma
SW-620 colon = system: SW-620 colon
HCC-2998 colon = system: HCC-2998 colon
A549 NSCLC = system: A549 NSCLC
HS 578T breast = system: HS 578T breast
U251 CNS = system: U251 CNS
SK-OV-3 ovarian = system: SK-OV-3 ovarian
SF-268 CNS = system: SF-268 CNS
K-562 leukemia = system: K-562 leukemia
HL-60(TB) leukemia = system: HL-60(TB) leukemia
UACC-62 melanoma = system: UACC-62 melanoma
SF-539 CNS = system: SF-539 CNS

Q: Which GI50 (EKVX NSCLC) does the source give for `COc1ccc2c(c1)CCCN2c1c2ccccc2nc2ccccc12` here?
A: Its GI50 is 932 nM.

Q: What about the TGI (EKVX NSCLC) of the same molecule?
A: Its TGI is > 100000 nM.

Q: And the GI50 (HCT-15 colon)?
A: The GI50 was 314 nM.

Q: What about the TGI (HCT-15 colon) of the same molecule?
A: Its TGI is 25600 nM.

Q: And the GI50 (CCRF-CEM leukemia)?
A: Its GI50 is 353 nM.

Q: What about the TGI (CCRF-CEM leukemia) of the same molecule?
A: The TGI was 71600 nM.

Q: What about the GI50 (UACC-257 melanoma) of the same molecule?
A: The GI50 was 8110 nM.

Q: And the TGI (UACC-257 melanoma)?
A: The TGI was > 100000 nM.

Q: What about the GI50 (SK-MEL-2 melanoma) of the same molecule?
A: The GI50 was 813 nM.

Q: And the TGI (SK-MEL-2 melanoma)?
A: The TGI was > 100000 nM.

Q: What about the GI50 (COLO 205 colon) of the same molecule?
A: The GI50 was 269 nM.

Q: And the TGI (COLO 205 colon)?
A: The TGI was 849 nM.

Q: What about the GI50 (RPMI-8226 leukemia) of the same molecule?
A: The GI50 was 431 nM.

Q: What about the TGI (RPMI-8226 leukemia) of the same molecule?
A: The TGI was 4980 nM.

Q: What about the GI50 (MOLT-4 leukemia) of the same molecule?
A: The GI50 was 400 nM.

Q: And the TGI (MOLT-4 leukemia)?
A: Its TGI is > 100000 nM.

Q: What about the GI50 (PC-3 prostate) of the same molecule?
A: Its GI50 is 354 nM.

Q: And the TGI (PC-3 prostate)?
A: Its TGI is > 100000 nM.

Q: And the GI50 (UO-31 renal)?
A: The GI50 was 690 nM.

Q: And the TGI (UO-31 renal)?
A: The TGI was > 100000 nM.

Q: What about the GI50 (HCT-116 colon) of the same molecule?
A: The GI50 was 334 nM.

Q: What about the TGI (HCT-116 colon) of the same molecule?
A: Its TGI is 14300 nM.

Q: And the GI50 (NCI-H522 lung)?
A: Its GI50 is 384 nM.

Q: And the TGI (NCI-H522 lung)?
A: The TGI was 16200 nM.

Q: And the GI50 (CAKI-1 renal)?
A: The GI50 was 383 nM.

Q: And the TGI (CAKI-1 renal)?
A: Its TGI is > 100000 nM.

Q: And the GI50 (IGROV1 ovarian)?
A: The GI50 was 811 nM.

Q: What about the TGI (IGROV1 ovarian) of the same molecule?
A: Its TGI is 34700 nM.

Q: And the GI50 (SNB-19 CNS)?
A: Its GI50 is 546 nM.

Q: What about the TGI (SNB-19 CNS) of the same molecule?
A: Its TGI is > 100000 nM.

Q: And the GI50 (MALME-3M melanoma)?
A: The GI50 was 4260 nM.

Q: And the TGI (MALME-3M melanoma)?
A: Its TGI is > 100000 nM.

Q: What about the GI50 (SW-620 colon) of the same molecule?
A: The GI50 was 403 nM.

Q: What about the TGI (SW-620 colon) of the same molecule?
A: The TGI was > 100000 nM.

Q: And the GI50 (HCC-2998 colon)?
A: Its GI50 is 311 nM.

Q: And the TGI (HCC-2998 colon)?
A: The TGI was 1040 nM.

Q: What about the GI50 (A549 NSCLC) of the same molecule?
A: The GI50 was 418 nM.

Q: What about the TGI (A549 NSCLC) of the same molecule?
A: The TGI was > 100000 nM.

Q: And the GI50 (HS 578T breast)?
A: Its GI50 is 314 nM.

Q: What about the TGI (HS 578T breast) of the same molecule?
A: The TGI was 5860 nM.

Q: What about the GI50 (U251 CNS) of the same molecule?
A: Its GI50 is 379 nM.

Q: And the TGI (U251 CNS)?
A: Its TGI is > 100000 nM.

Q: What about the GI50 (SK-OV-3 ovarian) of the same molecule?
A: Its GI50 is 652 nM.

Q: What about the TGI (SK-OV-3 ovarian) of the same molecule?
A: The TGI was > 100000 nM.

Q: What about the GI50 (SF-268 CNS) of the same molecule?
A: Its GI50 is 933 nM.

Q: What about the TGI (SF-268 CNS) of the same molecule?
A: The TGI was > 100000 nM.

Q: And the GI50 (K-562 leukemia)?
A: Its GI50 is 341 nM.

Q: What about the TGI (K-562 leukemia) of the same molecule?
A: Its TGI is > 100000 nM.

Q: And the GI50 (HL-60(TB) leukemia)?
A: The GI50 was 298 nM.

Q: What about the TGI (HL-60(TB) leukemia) of the same molecule?
A: The TGI was 1090 nM.

Q: What about the GI50 (UACC-62 melanoma) of the same molecule?
A: The GI50 was 380 nM.

Q: And the TGI (UACC-62 melanoma)?
A: Its TGI is 3540 nM.

Q: And the GI50 (SF-539 CNS)?
A: Its GI50 is 251 nM.

Q: What about the TGI (SF-539 CNS) of the same molecule?
A: Its TGI is 741 nM.
